Each compound was assayed against T1, human FASN (Homo sapiens, UniProt P49327) (assay: FASN Scintillation Proximity Flashplate Assay). Conditions: human FASN purified from SKBR3 cells; unstarred symbols.
T1 construct: was purified from SKBR3 cells using procedures modified from those in Jayakumar et al; endogenous in cells; host or cells: SKBR3 human breast cancer cells (ATCC); Endogenous enzyme purified by ammonium sulfate precipitation and a mono Q column
Format: biochemical
Procedure: Human FASN protein (SEQ ID NO. 1) was purified from SKBR3 cells using procedures modified from those in Jayakumar et al. PNAS 1995, 92:8695-8699. SKBR3 cells were obtained from ATCC and grown in DMEM high glucose medium supplemented with 10% FBS, 1 μg/mL bovine pancreas insulin, 100 U/mL penicillin and 100 µg/mL streptomycin. The confluent cells were trypsinized and washed three times with PBS buffer before frozen in liquid N2 and stored at −80° C. Frozen cells were thawed on ice and resuspended in lysis buffer (25 mM Tris-HCl, pH 7.0, 15 mM NaCl, 1 mM EDTA, and 1 mM DTT) with protease inhibitors. The cells were lysed by sonication, and the cell debris was removed by centrifugation at 20,000 rpm for 30 min. To the supernatant, neutralized saturated ammonium sulfate solution was added to a final concentration of 35%. The solution was left on ice for 1 hr, and the precipitated proteins were harvested by centrifugation at 20,000 rpm for 30 min. The proteins were redissolved in lysis buffer without NaCl and loaded on a mono Q column. Bound proteins were eluted with a linear gradient of NaCl in lysis buffer. Each fraction was analyzed by SDS-PAGE and FASN NADPH consumption assay. The fractions containing FASN were pooled and concentrated to 2-3 mg/mL. Glycerol was added to 20%, and the protein was frozen in liquid N2 and stored at −80° C.
Acetyl-coenzyme A, malonyl-coenzyme A, NADPH, bovine gamma globulin, and ORLISTAT were purchased from Sigma (St. Louis, Mo.). Tris(2-carboxyethyl) phosphine hydrochloride (TCEP) was purchased from Pierce Biotechnologies (Rockford, Ill.). [^3H]-acetyl-coenzyme A was purchased from Moravek Biochemicals (Brea, CA). FlashPlate™ PLUS phospholipid 96-well scintillant coated microplates were purchased from Perkin Elmer Life and Analytical Sciences (Shelton, CT). The method of the FASN Scintillation Proximity FlashPlate assay is similar to that described in Weiss and Glickman Assay Drug Dev Technol 2003, 1:161-6. In a 96-well polypropylene microplate, a dilution series (typical concentrations 60 nM-1.0 mM) of test compounds were prepared in DMSO followed by a 20-fold dilution into FASN assay buffer (50 mM potassium phosphate, pH 7.0, 1.0 mM EDTA, 0.01% NP-40), of which 5.0 μL each was transferred to a FlashPlate® PLUS 96-well plate and mixed with 35 μL FASN assay buffer plus 0.5 mg/mL bovine gamma globulin and 1 mM TCEP. FASN protein (10 μL, 10 nM) was added per well, and the microplate was incubated at 37° C. for 30 min. 10 μL of 20 mM NADPH was added, and the reaction was initiated by addition of […] substrate mixture to final concentrations of 1 nM FASN, 100 μM acetyl-coenzyme A, 6 μCi [^3H]-acetyl-coenzyme A, 300 μM malonyl-coenzyme A, 2 mM NADPH, 0.5 mg/mL bovine gamma globulin, and 1 mM TCEP in a volume of 100 μL per well. Assay plates were incubated for 2 hr at 37° C. and the reaction was stopped with 2 μL of 2.5 mM stock solution of ORLISTAT in DMSO to ˜50 μM. The plates were read in a Wallac 1450 Microbeta Plus liquid scintillation counter (Perkin Elmer, Waltham, Mass.), and counts per minute (CPM) were collected over 2 min. Each inhibitor well CPM was compared to the maximum FASN enzyme activity (Max) CPM and the background (Min) CPM, as measured by omission of FASN enzyme in the background well. % Inhibition values were calculated, and curves were fitted by a four-parameter logistic function to yield IC50 values:
Compounds were assayed as inhibitors of human FASN using the above-described FASN Scintillation Proximity Flashplate Assay (IC50; nM) or FASN NADPH Consumption Assay (*) (IC50; nM). The corresponding activity of the isolated compound is also provided along with the measured mass (ES^+).

T1 sequence (P49327 whole entry): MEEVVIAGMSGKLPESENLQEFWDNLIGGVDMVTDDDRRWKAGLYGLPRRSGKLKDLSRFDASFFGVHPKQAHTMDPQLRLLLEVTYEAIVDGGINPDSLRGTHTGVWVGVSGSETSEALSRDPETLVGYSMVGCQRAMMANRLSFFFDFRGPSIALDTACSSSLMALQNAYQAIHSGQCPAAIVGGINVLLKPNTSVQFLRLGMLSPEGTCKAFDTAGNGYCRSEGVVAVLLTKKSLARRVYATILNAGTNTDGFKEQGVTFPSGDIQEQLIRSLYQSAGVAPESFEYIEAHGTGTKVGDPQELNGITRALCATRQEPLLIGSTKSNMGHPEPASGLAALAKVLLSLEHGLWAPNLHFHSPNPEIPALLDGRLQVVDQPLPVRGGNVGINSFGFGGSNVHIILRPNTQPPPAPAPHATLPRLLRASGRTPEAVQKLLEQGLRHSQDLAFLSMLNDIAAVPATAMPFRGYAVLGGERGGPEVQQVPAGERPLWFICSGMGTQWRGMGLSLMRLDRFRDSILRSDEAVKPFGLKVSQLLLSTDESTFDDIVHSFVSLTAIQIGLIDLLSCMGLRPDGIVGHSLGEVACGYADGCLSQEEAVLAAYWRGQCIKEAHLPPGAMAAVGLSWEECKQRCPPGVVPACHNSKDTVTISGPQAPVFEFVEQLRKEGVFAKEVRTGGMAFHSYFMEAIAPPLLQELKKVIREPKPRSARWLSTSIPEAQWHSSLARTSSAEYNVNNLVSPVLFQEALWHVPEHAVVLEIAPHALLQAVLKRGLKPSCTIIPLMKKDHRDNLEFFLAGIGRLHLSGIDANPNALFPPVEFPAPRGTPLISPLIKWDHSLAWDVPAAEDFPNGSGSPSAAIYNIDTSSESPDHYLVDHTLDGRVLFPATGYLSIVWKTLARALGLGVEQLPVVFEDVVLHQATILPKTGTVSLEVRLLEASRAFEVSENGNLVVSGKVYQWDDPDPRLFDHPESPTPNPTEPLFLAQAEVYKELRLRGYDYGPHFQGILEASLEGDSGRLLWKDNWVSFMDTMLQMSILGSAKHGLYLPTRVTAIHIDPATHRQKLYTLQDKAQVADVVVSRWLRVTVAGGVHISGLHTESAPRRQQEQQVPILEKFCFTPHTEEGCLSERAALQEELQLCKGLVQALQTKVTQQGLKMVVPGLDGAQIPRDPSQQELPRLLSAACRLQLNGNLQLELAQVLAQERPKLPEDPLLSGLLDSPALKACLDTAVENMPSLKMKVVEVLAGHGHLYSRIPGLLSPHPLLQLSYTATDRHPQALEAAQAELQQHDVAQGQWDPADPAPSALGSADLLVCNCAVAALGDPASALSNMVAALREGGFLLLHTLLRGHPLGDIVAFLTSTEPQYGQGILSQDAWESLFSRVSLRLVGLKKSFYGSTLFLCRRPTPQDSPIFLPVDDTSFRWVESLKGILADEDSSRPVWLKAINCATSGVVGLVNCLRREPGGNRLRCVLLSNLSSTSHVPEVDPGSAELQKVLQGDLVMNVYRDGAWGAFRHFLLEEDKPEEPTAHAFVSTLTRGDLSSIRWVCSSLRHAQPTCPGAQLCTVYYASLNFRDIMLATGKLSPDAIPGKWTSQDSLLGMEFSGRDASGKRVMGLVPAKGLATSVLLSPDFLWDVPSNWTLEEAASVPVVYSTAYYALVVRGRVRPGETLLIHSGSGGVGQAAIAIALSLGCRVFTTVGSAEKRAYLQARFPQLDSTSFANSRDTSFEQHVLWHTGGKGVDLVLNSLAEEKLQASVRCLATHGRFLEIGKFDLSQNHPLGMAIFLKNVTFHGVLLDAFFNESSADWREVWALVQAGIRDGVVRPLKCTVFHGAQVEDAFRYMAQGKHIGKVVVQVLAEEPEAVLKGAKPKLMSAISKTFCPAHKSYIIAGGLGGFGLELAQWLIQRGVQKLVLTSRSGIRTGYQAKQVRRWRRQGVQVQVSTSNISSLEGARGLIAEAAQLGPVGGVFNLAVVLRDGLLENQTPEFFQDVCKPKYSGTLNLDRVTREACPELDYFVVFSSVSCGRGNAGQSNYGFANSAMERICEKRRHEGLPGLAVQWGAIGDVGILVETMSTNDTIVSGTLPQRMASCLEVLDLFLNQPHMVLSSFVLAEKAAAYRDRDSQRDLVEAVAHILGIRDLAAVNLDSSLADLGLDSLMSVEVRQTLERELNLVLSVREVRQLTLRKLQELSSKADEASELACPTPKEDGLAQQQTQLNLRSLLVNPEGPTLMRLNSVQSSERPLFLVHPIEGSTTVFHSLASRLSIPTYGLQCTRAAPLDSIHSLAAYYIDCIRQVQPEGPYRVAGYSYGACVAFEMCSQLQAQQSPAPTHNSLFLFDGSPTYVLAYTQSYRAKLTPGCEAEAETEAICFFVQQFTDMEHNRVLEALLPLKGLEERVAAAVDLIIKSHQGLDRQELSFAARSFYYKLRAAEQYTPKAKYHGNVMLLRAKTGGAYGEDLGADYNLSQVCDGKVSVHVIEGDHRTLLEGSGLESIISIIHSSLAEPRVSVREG

Q: Which IC50 does the source give for COc1ccc(N(C(=O)n2nnn(-c3c(F)cccc3C(=O)N3CCOCC3)c2=O)C(C)C)cc1C(=O)O here?
A: 0.2 to 5 µM

Q: Which IC50 does the source give for CCN(C(=O)n1nnn(-c2c(Cl)cccc2Cl)c1=O)c1ccc(C(=O)OC)cc1 here?
A: 0.015 to 0.1 µM

Q: For COc1cccc(F)c1-n1nnn(C(=O)N(c2cccc(C(=O)OCc3ccccc3)c2)C2CC2)c1=O, which IC50 is on record?
A: < 0.015 µM

Q: For CC(C)N(C(=O)n1nnn(-c2c(F)cccc2F)c1=O)c1ccc(NS(C)(=O)=O)c(C(=O)O)c1, which IC50 is on record?
A: < 0.015 µM

Q: Which IC50 does the source give for CN(C)N(C(=O)n1nnn(-c2c(F)cccc2F)c1=O)C1=CCCC1 here?
A: 0.015 to 0.1 µM

Q: How did the IC50 turn out when COc1ccc(N(C(=O)n2nnn(-c3c(F)cccc3C(=O)N(C)Cc3ccccc3)c2=O)C(C)C)cc1C(=O)O was run?
A: < 0.015 µM

Q: Which IC50 does the source give for COc1ccc(N(C(=O)n2nnn(-c3c(F)cccc3OC)c2=O)C2CCCCC2)cc1C(=O)O here?
A: < 0.015 µM

Q: Which IC50 does the source give for CCN(C(=O)n1nnn(-c2c(F)cccc2F)c1=O)c1ccc(NC(C)=O)cc1F here?
A: < 0.015 µM

Q: COc1ccc(COC(=O)c2cc(N(C(=O)n3nnn(-c4cccc5nsnc45)c3=O)C3CCCCC3)ccc2OC)cc1 was tested. Which IC50 did it give?
A: < 0.015 µM

Q: With CC(=O)N1CCN(c2ccc(N(C(=O)n3nnn(-c4c(F)cccc4F)c3=O)C3CCCCC3)cc2C(=O)O)CC1 as the compound, how does the IC50 read?
A: < 0.015 µM

Q: For COc1ccc(N(C(=O)n2nnn(-c3c(F)cccc3F)c2=O)C2CCCCC2)cc1C(=O)O, which IC50 is on record?
A: < 0.015 µM

Q: Which IC50 does the source give for CCN(C(=O)n1nnn(-c2ccccc2OC)c1=O)c1ccc(OC)c(C(=O)OCc2ccccc2)c1 here?
A: < 0.015 µM

Q: With O=C(O)c1ccc(N(C(=O)n2nnn(-c3c(F)cccc3F)c2=O)C2CCCCC2)cc1O as the compound, how does the IC50 read?
A: < 0.015 µM

Q: CN(C)N(C(=O)n1nnn(-c2ccccc2Cl)c1=O)/C1=C/CCCCCC1 was tested. Which IC50 did it give?
A: 0.2 to 5 µM

Q: With CCN(C(=O)n1nnn(-c2c(F)cccc2C(=O)N2CCCCC2)c1=O)c1ccccc1Oc1ccccc1 as the compound, how does the IC50 read?
A: 0.1 to 0.2 µM

Q: How did the IC50 turn out when CC(C)N(C(=O)n1nnn(-c2c(F)cccc2F)c1=O)c1ccc(Cl)c(C(=O)OCc2ccccc2)c1 was run?
A: < 0.015 µM

Q: With COc1ccc(N(C(=O)n2nnn(-c3c(F)cccc3OC)c2=O)C2CCCC2)cc1C(=O)O as the compound, how does the IC50 read?
A: < 0.015 µM

Q: Which IC50 does the source give for CCN(C(=O)n1nnn(-c2ccccc2OC)c1=O)c1cc(C(=O)O)ccc1OCCc1ccccc1 here?
A: < 0.015 µM

Q: With COc1cc(OC)c(N(C(=O)n2nnn(-c3c(F)cccc3F)c2=O)C2CCCCC2)cc1C(=O)O as the compound, how does the IC50 read?
A: < 0.015 µM

Q: How did the IC50 turn out when O=C(O)COc1ccc(N(C(=O)n2nnn(-c3c(F)cccc3F)c2=O)C2CCCCC2)cc1 was run?
A: < 0.015 µM

Q: For COc1cc(OC)c(N(C(=O)n2nnn(-c3c(F)cccc3F)c2=O)C(C)C)cc1C(=O)O, which IC50 is on record?
A: 0.015 to 0.1 µM

Q: CN(C)N(C(=O)n1nnn(-c2ccccc2Cl)c1=O)C1=CCCCCC1 was tested. Which IC50 did it give?
A: 0.1 to 0.2 µM

Q: For COC(=O)c1cc(N(C(=O)n2nnn(-c3c(F)cccc3F)c2=O)C2CCCCC2)ccc1OC, which IC50 is on record?
A: < 0.015 µM

Q: How did the IC50 turn out when COc1ccc(N(C(=O)n2nnn(-c3c(F)cccc3OC(C)C)c2=O)C2CCCCC2)cc1C(=O)O was run?
A: < 0.015 µM

Q: Which IC50 does the source give for O=C(N1Cc2cccc3cccc(c23)C1)n1nnn(-c2c(F)cccc2F)c1=O here?
A: 0.015 to 0.1 µM

Q: How did the IC50 turn out when O=C(O)c1ccc(F)c(N(C(=O)n2nnn(-c3c(F)cccc3F)c2=O)C2CCCC2)c1 was run?
A: < 0.015 µM

Q: Which IC50 does the source give for O=C(O)c1ccc(N(C(=O)n2nnn(-c3c(F)cccc3F)c2=O)C2CCCCC2)c(Oc2ccccc2)c1 here?
A: < 0.015 µM

Q: With CCN1CCN(c2ccc(N(C(=O)n3nnn(-c4c(F)cccc4F)c3=O)C3CCCCC3)cc2C(=O)O)CC1 as the compound, how does the IC50 read?
A: 0.015 to 0.1 µM

Q: O=C(OCc1ccccc1)c1cc(N(C(=O)n2nnn(-c3c(F)cccc3F)c2=O)C2CCCCC2)ccc1NCc1ccccc1 was tested. Which IC50 did it give?
A: < 0.015 µM

Q: COc1cccc(F)c1-n1nnn(C(=O)N(c2ccccc2)C2CCCC2)c1=O was tested. Which IC50 did it give?
A: < 0.015 µM

Q: Which IC50 does the source give for CCCCOc1ccc(C(=O)O)cc1N(CC)C(=O)n1nnn(-c2c(F)cccc2F)c1=O here?
A: < 0.015 µM

Q: For COc1ccc(C(=O)OCc2ccccc2)cc1N(CCCc1ccccc1)C(=O)n1nnn(-c2c(F)cccc2F)c1=O, which IC50 is on record?
A: < 0.015 µM

Q: How did the IC50 turn out when Cc1ccc(C)n1-c1ccc(N(C(=O)n2nnn(-c3c(F)cccc3F)c2=O)C2CCCCC2)cc1C(=O)O was run?
A: < 0.015 µM

Q: Which IC50 does the source give for COc1ccc(N(C(=O)n2nnn(-c3c(F)cccc3N3CCOCC3)c2=O)C2CCCCC2)cc1C(=O)O here?
A: 0.015 to 0.1 µM

Q: Which IC50 does the source give for O=C(O)c1cc(N(C(=O)n2nnn(-c3c(F)cccc3F)c2=O)C2CCCCC2)ccc1N1CCOCC1 here?
A: 0.015 to 0.1 µM

— patent publication US9346769B2, “Tetrazolones as inhibitors of fatty acid synthase” (Infinity Pharmaceuticals, Inc., priority 2010, dated 2016)
